± gives the expanded uncertainty stated by the source.

The conditions of the data set: Crystal; DTA.

In the case of `Nc1ccc(N)c2c1C(=O)c1ccccc1C2=O` [1,4-diaminoanthraquinone], the Normal melting temperature is 243.12 ± 0.5 °C.
